The subject of experiment [1] is lymphocytes (peripheral immune cells). Briefly: Intracellular thiol expression of thiol-depleted peripheral immune cells (CMFDA flow cytofluorimetry). Format: cell-based, human. The note with it: thiol-deficient conditions (1603), 10-20% thiol reduction. The method, then: Peripheral immune cells from healthy donors (n=9) were isolated from the peripheral blood. The major fraction of the resulting total population of mononuclear cells regularly represents lymphocytes with a relative percentage of approximately 90%, depending on the donor. 10% of the mononuclear cells are represented by monocytes. The mononuclear cells obtained were absorbed in special cell culture media and incubated in a gasifying incubation cabinet at 37° C., a relative humidity of 98% and 5% relative air-CO2 content. […] To test the influence of the combinations used according to the invention on the thiol status of thiol-deficient immune cells, these cells were artificially thiol-depleted. This process was carried out using proven methods by cultivation in thiol-deficient media (RPMI 1603). Comparative cultures using complete media (RPMI) 1640) were used to define the best possible normal value under the culture conditions. […] Primarily non-fluorogenic CMFDA is thereby passively absorbed by the cell. By means of the chlormethyl group, there is a bonding to cytoplasmic thiol groups. […] The median fluorescence intensity of the specimen (10,000 cells) is directly proportional to the concentration of the intracellular thiol groups. […] The data are presented as the ratio of the cellular fluorescence intensity to the respective calibration particles (beads) that were analyzed simultaneously. […]

For a further experiment, the system named is peritoneal macrophages. In words: Membrane thiol expression of peritoneal macrophages from peritoneal dialysis patients. Format: cell-based, human. Particulars: α-lipoic acid effect disappeared after 4 days of treatment. The protocol: Peritoneal macrophages were isolated from the effluate of peritoneal dialysis of patients with a high degree of renal insufficiency, absorbed in a cell culture medium and incubated in a gasifying incubation cabinet at 37° C., a relative humidity of 98% and 7.5% relative air-CO2 content. To investigate the influence of the combinations used according to the invention on the thiol status of the peritoneal macrophages, individual fractions were treated with α-lipoic acid, the effectors of the glutathione metabolism ambroxol or the ACE inhibitor enalapril and with the combination of α-lipoic acid/ambroxol or α-lipoic acid/enalapril, while an additional fraction was maintained as an untreated control. The cellular thiol status was determined using the measurement methods described in Example 1. […] The membrane expression of thiols was determined on the basis of the median fluorescence intensity (mfi) of the specimen (3000 cells/measurement) after coupling to a chlormethyl-fluorochrome derivative.

On to `O=C(O)CCCCC1CCSS1` (stereo not drawn) [α-lipoic acid], for which the “Effect on the intracellular thiol deficit (in words)” value in experiment [1] was “not possible to achieve a complete compensation of the thiol deficit”. Besides, the “Effect on membrane-bound thiol expression of peritoneal macrophages (in words)” value with peritoneal macrophages is listed as “very clear effect”.
